Values quoted from earlier work, collected in US6642219B1, “Progestogen-antiprogestogen regimens” (Akzo Nobel N.V., priority 1997, dated 2003).
One block for each molecule: values may come before it.

How the values were obtained:
progesterone receptor = target: T1, progesterone receptor (Homo sapiens, UniProt P06401)
T1 sequence (P06401 1-933): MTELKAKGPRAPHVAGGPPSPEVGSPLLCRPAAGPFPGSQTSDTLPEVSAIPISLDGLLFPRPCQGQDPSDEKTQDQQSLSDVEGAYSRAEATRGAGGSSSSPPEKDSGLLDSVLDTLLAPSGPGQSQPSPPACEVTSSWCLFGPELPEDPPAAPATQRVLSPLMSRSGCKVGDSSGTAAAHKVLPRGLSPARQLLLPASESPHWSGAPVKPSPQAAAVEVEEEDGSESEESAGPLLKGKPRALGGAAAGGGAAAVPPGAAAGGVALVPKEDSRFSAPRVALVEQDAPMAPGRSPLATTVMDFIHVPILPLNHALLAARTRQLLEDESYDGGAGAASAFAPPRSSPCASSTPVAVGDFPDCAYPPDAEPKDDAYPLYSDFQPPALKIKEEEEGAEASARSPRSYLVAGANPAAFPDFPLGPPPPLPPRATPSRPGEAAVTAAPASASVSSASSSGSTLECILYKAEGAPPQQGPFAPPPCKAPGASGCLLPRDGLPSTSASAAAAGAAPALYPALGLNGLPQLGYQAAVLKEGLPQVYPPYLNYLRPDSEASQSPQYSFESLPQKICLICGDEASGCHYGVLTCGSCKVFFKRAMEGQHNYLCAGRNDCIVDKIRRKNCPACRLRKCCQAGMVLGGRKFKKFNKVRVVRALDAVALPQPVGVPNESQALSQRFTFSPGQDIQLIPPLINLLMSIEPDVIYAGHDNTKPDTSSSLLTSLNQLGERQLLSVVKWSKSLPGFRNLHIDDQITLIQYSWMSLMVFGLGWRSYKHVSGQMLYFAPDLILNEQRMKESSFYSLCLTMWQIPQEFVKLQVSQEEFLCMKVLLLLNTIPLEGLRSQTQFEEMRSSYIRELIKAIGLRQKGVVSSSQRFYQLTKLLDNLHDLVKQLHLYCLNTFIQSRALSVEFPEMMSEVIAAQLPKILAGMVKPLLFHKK

[1] = in vivo
[2] = based on practically applied doses

Structure (SMILES): C#C[C@]1(O)CC[C@H]2[C@@H]3CCC4=CC(=O)CC[C@@H]4[C@H]3C(=C)C[C@@]21CC [3-keto-desogestrel]
progestogenic activity, compared among each other (progestogenic activity; [2]): relatively equipotent

Structure (SMILES): C#C[C@]1(O)C=C[C@H]2[C@@H]3CCC4=CC(=O)CC[C@@H]4[C@H]3CC[C@@]21CC [Gestodene]
progestogenic potency relative to levonorgestrel, desogestrel and 3-keto-desogestrel (progestogenic activity; [2]): approximately 1.5 times

Structure (SMILES): C#CC1(O)CC[C@H]2[C@@H]3CCC4=CC(=O)CC[C@@H]4[C@H]3CC[C@@]21CC (stereo partly drawn) [Norgestrel]
progestogenic potency relative to levonorgestrel (progestogenic activity): about one-half

anti-progestogen potency compared with RU 486 (progesterone receptor): somewhat more potent | half-life [1]: 50 h
Structure (SMILES): C[C@@H]1C[C@@H]2C(=C3CCC(=O)C=C31)[C@@H](c1ccc(N(C)C)cc1)C[C@@]1(C)[C@H]2CC[C@@]12CCCO2 [Org 31710, (6α,11β,17β)-11-(4-dimethylaminophenyl)-6-methyl-4′,5′-dihydrospiro-[estra-4,9-diene-17,2′-(3′H)-furan]-3-one]

anti-progestogen potency compared with RU 486 (progesterone receptor): somewhat more potent | half-life [1]: approximately 15 hours
Structure (SMILES): CC(=O)c1ccc(C2CC3(C)C(CCC34OCC=C4C)C3CCC4=CC(=O)CCC4=C23)cc1 (stereo not drawn) [Org 33628, (11β,17α)-11-(4-acetylphenyl)-17,23-epoxy-19,24-dinorchola-4,9,20-trien-3-one]

half-life [1]: ~20 h
Structure (SMILES): CC#C[C@]1(O)CC[C@H]2[C@@H]3CCC4=CC(=O)CCC4=C3[C@@H](c3ccc(N(C)C)cc3)C[C@@]21C [RU 486, (11β,17β)-11-[4-(demethylamino)-phenyl]-17-hydroxy-17-(1-propynyl)esta-4,9diene-3-one]

Structure (SMILES): C#C[C@]1(O)CC[C@H]2[C@@H]3CCC4=CCCC[C@@H]4[C@H]3C(=C)C[C@@]21CC [desogestrel, 13-ethyl-11-methylene-18,19-di-nor-17α-pregn-4en-20-yn-17-ol]
progestogenic activity, compared among each other (progestogenic activity; [2]): relatively equipotent
